Experimental data as given in patent publication US20100292222A1, “CHEMICAL COMPOUNDS 751” (ASTRAZENECA AB, priority 2009, published 2010).

target: T1, Androgen Receptor (AR) (Homo sapiens, UniProt P10275, T878A); assay: LNCaP Androgen Receptor Down-Regulation Cell Assay; type: cell-based; conditions: LNCaP prostate carcinoma cell line; 20-22 hours incubation; immunofluorescence; 50% reduction of the AR signal
T1 construct: cell based immuno-fluorescence assay using the LNCaP prostate epithelial cell line; host or cells: LNCaP clone FGC prostate carcinoma cells
T1 sequence (P10275 1-920 T878A): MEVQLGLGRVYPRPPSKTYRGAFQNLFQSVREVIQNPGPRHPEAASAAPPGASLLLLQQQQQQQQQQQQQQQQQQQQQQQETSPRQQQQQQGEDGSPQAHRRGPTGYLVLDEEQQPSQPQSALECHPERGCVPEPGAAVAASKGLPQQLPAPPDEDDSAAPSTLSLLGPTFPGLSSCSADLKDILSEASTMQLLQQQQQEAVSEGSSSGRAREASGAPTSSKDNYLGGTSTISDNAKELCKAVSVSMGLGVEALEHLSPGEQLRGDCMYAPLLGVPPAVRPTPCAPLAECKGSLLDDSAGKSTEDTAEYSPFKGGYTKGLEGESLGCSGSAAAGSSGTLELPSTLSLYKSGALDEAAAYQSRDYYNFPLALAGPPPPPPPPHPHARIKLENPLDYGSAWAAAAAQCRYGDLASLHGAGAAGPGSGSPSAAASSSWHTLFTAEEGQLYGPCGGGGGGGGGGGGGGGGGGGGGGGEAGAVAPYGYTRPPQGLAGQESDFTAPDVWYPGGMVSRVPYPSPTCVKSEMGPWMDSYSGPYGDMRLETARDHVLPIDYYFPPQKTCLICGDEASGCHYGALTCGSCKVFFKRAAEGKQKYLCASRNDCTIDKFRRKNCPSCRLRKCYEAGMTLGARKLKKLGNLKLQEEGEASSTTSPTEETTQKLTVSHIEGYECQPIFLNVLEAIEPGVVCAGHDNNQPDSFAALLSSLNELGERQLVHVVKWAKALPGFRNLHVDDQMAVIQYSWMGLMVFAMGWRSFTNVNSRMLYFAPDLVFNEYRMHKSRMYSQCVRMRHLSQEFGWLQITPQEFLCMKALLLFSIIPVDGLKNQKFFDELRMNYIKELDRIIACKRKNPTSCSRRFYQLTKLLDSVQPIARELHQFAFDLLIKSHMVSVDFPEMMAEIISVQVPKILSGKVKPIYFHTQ
Experimental: The ability of compounds to reduce Androgen Receptor (AR) numbers was assessed in a cell based immuno-fluorescence assay using the LNCaP prostate epithelial cell line.
This immunofluorescence end point assay measures the ability of a test compound to down-regulate and reduce measured levels of the AR in the LNCaP prostate carcinoma cell line (LNCaP clone FGC (CRL-1740) obtained from the American Type Culture Collection (ATCC)).
LNCaP cells were cultured in Growth Medium (phenol red free Roswell Park Memorial Institute (RPMI) 1640 (Invitrogen Code no. 11835-063) containing 2 mM L-Glutamine (Invitrogen Code no. 25030-024) and 1% (v/v) Penicillin/Streptomycin (10000 units/ml Penicillin and 10000 μg/ml of Streptomycin utilising penicillin G (sodium salt) and streptomycin sulphate: prepared in normal saline, Invitrogen Code no. 15140122) and 10% (v/v) foetal bovine serum (FBS)) in a 5% CO2 air incubator at 37° C. Cells for assay were harvested from T175 stock flasks by washing once in PBS (phosphate buffered saline, pH 7.4) (Invitrogen Code no. 14190-094) and harvested using 5 mls of 1× Trypsin/ethylaminediaminetetraacetic acid (EDTA) (10× Trypsin-EDTA, 5.0 g/L Trypsin, 2.0 g/L of EDTA•4Na and 8.5 g/L of NaCl, without Phenol Red, Invitrogen Code no. 15400-054) diluted in PBS solution. A 5 ml volume of Growth Medium was added to each flask (as above except that 5% (v/v) charcoal stripped FBS (HyClone Code no. SH30068.03) was included instead of 10% (v/v) FBS). Cells were syringed at least twice using a sterile 18G×1.5″ (1.2×40 mm) broad gauge needle and cell density was measured using a haemocytometer. Cells were further diluted in Growth Medium plus 5% (v/v) charcoal stripped FBS and seeded at a density of 6.5×10^3 cells per well (in 90 ul) into transparent, black, tissue culture treated 96 well plates (Packard, No. 6005182).
Test data reported herein was generated using two different compounds preparation and dosing methods. In method (1) a 10 mM compound stock solution in 100% (v/v) DMSO was serially diluted in 4-fold steps in 100% (v/v) DMSO using a Thermo Scientific Matrix SerialMate. The diluted compounds were then further diluted 1 in 30 in assay media using a Thermo Scientific Matrix PlateMate and a 10 μl aliquot of this dilution was dosed to cells manually using a multi-channel pipette. In method (2) starting with a 10 mM compound stock solution, the Labcyte Echo 550 was used to generate a compound concentration response set diluted in 30 μl of assay media. The Echo 550 is a liquid handler that uses acoustic technology to perform direct microplate-to-microplate transfers of DMSO compound solutions. The system can be programmed to transfer volumes as low as […] in multiple increments between microplates and in so doing generates a serial dilution of compound which is then back-filled to normalise the DMSO is concentration across the dilution range. A 10 μl volume of diluted compound is then dosed to cells using a Thermo Scientific Matrix PlateMate.
Plates were incubated overnight at 37° C., 5% CO2. Wells were then dosed with compound prepared by one of the 2 methods above and further incubated for 20-22 hours at 37° C., 5% CO2. Plates were fixed by the addition of 20 μl of 10% (v/v) formaldehyde solution (in PBS) to each well (final formaldehyde conc.=1.67% (v/v)) and left at room temperature for 10 mins. This fixative solution was removed and cells were washed with 250 μl of PBS/0.05% (v/v) Tween 20 (PBST) using an automated plate washer. This process was then repeated twice more.
Immunostaining was performed at room temperature. Cells were permeabilised by the addition of 35 μl of PBS containing 0.5% Tween 20 and incubated for 1 hour at room temperature. Permeabilisation solution was removed and cells were washed with 250 μl of PBST using an automated plate washer. This process was then repeated twice more. […]

Row | IC50 [nM] | SMILES
1 | 1500 | CC(=O)N1CCN(CCCOc2ccc(N3CCN(c4ccc5nnc(C(F)(F)F)n5n4)CC3)cc2)CC1 [Example 1.1, 6-(4-{4-[3-(4-acetylpiperazin-1-yl)propoxy]phenyl}piperazin-1-yl)-3-(trifluoromethyl)[1,2,4]-triazolo[4,3-b]pyridazine]
2 | 490 | COC[C@@H](CN1CCN(C(C)=O)CC1)Oc1ccc(C2CCN(c3ccc4nnc(C(F)(F)F)n4n3)CC2)cc1 [Example 29, 6-(4-{4-[(1R)-2-(4-acetylpiperazin-1-yl)-1-(methoxymethyl)ethoxy]phenyl}piperidin-1-yl)-3-(trifluoromethyl)[1,2,4]triazolo[4,3-b]pyridazine]
3 | 63 | CC(=O)N1CCN(CCOc2ccc(C3(O)CCN(c4ccc5nnc(C(F)(F)F)n5n4)CC3)cc2)C[C@@H]1C [Example 40, 4-(4-{2-[(3S)-4-acetyl-3-methylpiperazin-1-yl]ethoxy}phenyl)-1-[3-(trifluoromethyl) [1,2,4]triazolo[4,3-b]pyridazin-6-yl]piperidin-4-ol]
4 | 570 | COCCN1CCN(CCOc2ccc(C3CCN(c4ccc5nnc(C(F)(F)F)n5n4)CC3)cc2)CC1=O [Example 20, 1-(2-methoxyethyl)-4-[2-(4-{1-[3-(trifluoromethyl)[1,2,4]triazolo[4,3-b]pyridazin-6-yl]piperidin-4-yl}phenoxy)ethyl]piperazin-2-one]
5 | 67 | CC(=O)N1CCN(CCOc2ccc(C3CCN(c4ccc5nnc(C(F)(F)F)n5n4)CC3)cc2)C[C@H]1C [Example 34, 6-[4-(4-{2-[(3R)-4-acetyl-3-methylpiperazin-1-yl]ethoxy}phenyl)piperidin-1-yl]-3-(trifluoromethyl)[1,2,4]triazolo[4,3-b]pyridazine]
6 | 71 | CC(=O)N1CCN(CCOc2ccc(C3(O)CCN(c4ccc5nnc(C(F)(F)F)n5n4)CC3)cc2)C[C@H]1C [Example 39, 4-(4-{2-[(3R)-4-acetyl-3-methylpiperazin-1-yl]ethoxy}phenyl)-1-[3-(trifluoromethyl) [1,2,4]triazolo[4,3-b]pyridazin-6-yl]piperidin-4-ol]
7 | 82 | CC(=O)N1CCCN([C@H](C)COc2ccc(C3(O)CCN(c4ccc5nnc(C(F)(F)F)n5n4)CC3)cc2)CC1 (single isomer, unassigned) [Example 45, 4-{4-[2-(4-acetyl-1,4-diazepan-1-yl)propoxy]phenyl}-1-[3-(trifluoromethyl)[1,2,4]triazolo[4,3-b]pyridazin-6-yl]piperidin-4-ol]
8 | 18 | CC(=O)N1CCCN([C@H](C)COc2ccc(C3(O)CCN(c4ccc5nnc(C(F)(F)F)n5n4)CC3)cc2)CC1 (single isomer, unassigned) [Example 46, 4-{4-[2-(4-acetyl-1,4-diazepan-1-yl)propoxy]phenyl}-1-[3-(trifluoromethyl)[1,2,4]triazolo[4,3-b]pyridazin-6-yl]piperidin-4-ol]
9 | 5700 | CN1CCN(CCOc2ccc(N3CCN(c4ccc5nnc(C(F)(F)F)n5n4)CC3)cc2)CC1=O [Example 4, 1-methyl-4-[2-(4-{4-[3-(trifluoromethyl)[1,2,4]triazolo[4,3-b]pyridazin-6-yl]piperazin-1-yl}phenoxy)ethyl]piperazin-2-one]
10 | 160 | CC(=O)N1CCN(C[C@@H](C)Oc2ccc(C3CCN(c4ccc5nnc(C(F)(F)F)n5n4)CC3)cc2)CC1 [Example 26, 6-(4-{4-[(1R)-2-(4-acetylpiperazin-1-yl)-1-methylethoxy]phenyl}piperidin-1-yl)-3-(trifluoromethyl)[1,2,4]triazolo[4,3-b]pyridazine]
11 | 210 | CC(=O)N1CCN(CCOc2ccc(C3(O)CCN(c4ccc5nnc(C(F)(F)F)n5n4)CC3)c(C)c2)CC1 [Example 30, 4-{4-[2-(4-acetylpiperazin-1-yl)ethoxy]-2-methylphenyl}-1-[3-(trifluoromethyl)[1,2,4]-triazolo[4,3-b]pyridazin-6-yl]piperidin-4-ol]
12 | 1600 | CN1CCN(CCOc2ccc(C3CCN(c4ccc5nnc(C(F)(F)F)n5n4)CC3)cn2)CC1=O [Example 11, 1-methyl-4-{2-[(5-{1-[3-(trifluoromethyl)[1,2,4]triazolo[4,3-b]pyridazin-6-yl]piperidin-4-yl}pyridin-2-yl)oxy]ethyl}piperazin-2-one]
13 | 880 | CC(=O)N1CCN(C[C@H](C)Oc2ccc(C3CCN(c4ccc5nnc(C(F)(F)F)n5n4)CC3)cc2)CC1 [Example 27, 6-(4-{4-[(1S)-2-(4-acetylpiperazin-1-yl)-1-methylethoxy]phenyl}piperidin-1-yl)-3-(trifluoromethyl) [1,2,4]triazolo[4,3-b]pyridazine]
14 | 160 | CC(=O)N1CCCN(CCOc2ccc(C3CCN(c4ccc5nnc(C(F)(F)F)n5n4)CC3)cc2)CC1 [Example 14, 6-(4-{4-[2-(4-acetyl-1,4-diazepan-1-yl)ethoxy]phenyl}piperidin-1-yl)-3-(trifluoromethyl)[1,2,4]-triazolo[4,3-b]pyridazine]
15 | 510 | O=C1CN(CCOc2ccc(C3CCN(c4ccc5nnc(C(F)(F)F)n5n4)CC3)cc2)CCN1C1CC1 [Example 6, 1-cyclopropyl-4-[2-(4-{1-[3-(trifluoromethyl)[1,2,4]-triazolo[4,3-b]pyridazin-6-yl]piperidin-4-yl}phenoxy)ethyl]piperazin-2-one]
16 | 900 | C[C@H](O)C(=O)N1CCN(CCOc2ccc(C3CCN(c4ccc5nnc(C(F)(F)F)n5n4)CC3)cc2)CC1 [Example 23, (2S)-1-oxo-1-{4-[2-(4-{1-[3-(trifluoromethyl)[1,2,4]triazolo[4,3-b]pyridazin-6-yl]piperidin-4-yl}phenoxy)ethyl]piperazin-1-yl}propan-2-ol]
17 | 36 | CC(=O)N1CCN([C@H](C)COc2ccc(C3(O)CCN(c4ccc5nnc(C(F)(F)F)n5n4)CC3)cc2)CC1 (single isomer, unassigned) [Example 44, 4-{4-[2-(4-acetylpiperazin-1-yl)propoxy]phenyl}-1-[3-(trifluoromethyl)[1,2,4]triazolo[4,3-b]pyridazin-6-yl]piperidin-4-ol]
